From paper PMC12596218 (Journal of Lipid Research, 2025)
Residue numbers refer to the chain shown, from its start. Where two headings read alike, the source gives them in different places.

Columns and labels:
[1] = molecular target: T1, NTCP M290S (NTCP→ASBT) (Homo sapiens, UniProt Q14973, M290S); assay: [3H]TC transport and inhibition assay, NTCP→ASBT mutant in HEK293 cells; assay type: cell-based; details: 1 μM [3H]TC, 10 min
T1 construct: stably transfected with the full open reading frames of human NTCP, ASBT, SOAT, OATP1B1, OATP1B3, OATP2B1, and murine Asbt (mAsbt); expressed in transfected cells; host or cells: HEK293, stably transfected
T1 sequence (Q14973 1-349 M290S): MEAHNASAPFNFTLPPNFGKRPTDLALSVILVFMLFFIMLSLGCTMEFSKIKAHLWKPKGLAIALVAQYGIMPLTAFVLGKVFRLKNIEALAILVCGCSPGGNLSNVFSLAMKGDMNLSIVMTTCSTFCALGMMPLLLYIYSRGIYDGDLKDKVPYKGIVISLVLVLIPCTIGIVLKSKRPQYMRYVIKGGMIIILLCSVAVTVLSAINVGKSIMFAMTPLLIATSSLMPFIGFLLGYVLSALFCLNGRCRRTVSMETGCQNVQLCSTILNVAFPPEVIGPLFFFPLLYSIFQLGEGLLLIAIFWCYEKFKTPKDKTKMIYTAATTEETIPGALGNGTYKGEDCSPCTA
Method: (§1) Amplification was performed on a peqSTAR XS PEQLAB PCR cycler (Peqlab) with Pfu DNA polymerase (M774A; Promega) in 18 cycles under the following conditions: initial denaturation for 2 min at 95°C, denaturation for 30 s at 95°C, annealing for 1 min at 55°C, extension for 8 min and 30 s at 72°C, final elongation for 10 min at 72°C and final hold at 4°C. After amplification, the products were digested with DpnI (ER1701; Thermo Fisher Scientific) for 1 h at 37°C and transformed into TOP10 chemically competent E. coli (Thermo Fisher Scientific). Plasmids were isolated using a GeneJET Plasmid Miniprep Kit (Thermo Fisher Scientific) according to the manufacturer's protocol, and the generated point mutations were verified by DNA sequencing (Seqlab Microsynth).
(§2) Cells were seeded onto poly-L-lysine-coated 96-well plates, induced with 1 μg/ml tetracycline, and grown to confluence over 72 h at 37°C. Then, cells were washed with tempered (37°C) phosphate-buffered saline (PBS, containing 137.0 mM NaCl, 2.7 mM KCl, 1.5 mM KH2PO4, and 7.3 mM Na2HPO4, at pH 7.4) and preincubated with 80 μl sodium transport buffer (STB, containing 142.9 mM NaCl, 4.7 mM KCl, 1.2 mM MgSO4, 1.2 mM KH2PO4, 1.8 mM CaCl2, and 20.0 mM HEPES, at pH 7.4) for 5 min at 37°C. For inhibition studies, the medium was replaced by 80 μl STB containing the respective inhibitor or solvent alone and cells were further incubated for 5 min at 37°C. Transport experiments were started by adding 20 μl of a 5-fold concentrated substrate solution (solved in STB). For transport experiments under sodium-free conditions the same buffer composition was used as for STB, but sodium chloride was substituted with equimolar concentrations of choline chloride as previously reported ([20], [24]). Transport experiments were stopped by washing twice with ice-cold PBS and the plates were kept cool on ice until adding the lysis buffer [1% sodium dodecyl sulfate (SDS) and 1 N NaOH]. Then, the cell-associated radioactivity of the respective tritium-labeled substrate or ligand was quantified by liquid scintillation counting using MicroScint-20 scintillation cocktail (Revvity) in a Packard Microplate Scintillation Counter TopCount NXT (Packard Instrument Company). For IC50 transport inhibition measurements, the mean uptake values measured in non-carrier-expressing HEK293 control cells were defined as 0% uptake control and were subtracted from all other values. Values from cells without inhibitor and solvent alone were set to 100%. Finally, all net transport data were expressed as uptake or binding as % of control. All transport or inhibition graphs were generated with GraphPad Prism 6 (GraphPad). Determination of half maximal inhibitory concentrations (IC50) was done by nonlinear regression analysis using the equation log (inhibitor) versus response—variable slope settings. All data points of the IC50 curves represent means ± SD of quadruplicate determinations. For Km measurements, BS uptake in the absence of sodium was regarded as carrier-independent unspecific uptake and was subtracted from the transport rates in the presence of sodium to obtain carrier-specific uptake rates (indicated as dashed lines). From the specific uptake rates, Michaelis Menten Km values were calculated by non-linear regression analysis.

[2] = molecular target: T2, NTCP M290T/I291V (NTCP→mAsbt) (Homo sapiens, UniProt Q14973, I291V/M290T); assay: [3H]TC transport and inhibition assay, NTCP→mAsbt mutant in HEK293 cells; assay type: cell-based; details: 1 μM [3H]TC, 10 min
T2 construct: stably transfected with the full open reading frames of human NTCP, ASBT, SOAT, OATP1B1, OATP1B3, OATP2B1, and murine Asbt (mAsbt); expressed in transfected cells; host or cells: HEK293, stably transfected
T2 sequence (Q14973 1-349 M290T/I291V): T1 sequence (Q14973 1-349 M290S) with S290T, I291V
Method: as §1, §2

[3] = cited from earlier work

Row | Inhibition curves and AUC of NTCP→ASBT mutant compared to wild-type NTCP [1] | Inhibition curves and AUC of NTCP→mAsbt mutant compared to wild-type NTCP [2] | Compound | Cmax, clinical drug concentration ([3]; 15 mg cohort study, ref PMDA Goofice report) | Cmax, clinical drug concentration ([3]; 45 mg cohort study, fasted, ref EMA Livmarli assessment report variation) [ng/mL] | Cmax, clinical drug concentration ([3]; 45 mg cohort study, fed, ref EMA Livmarli assessment report variation) [ng/mL] | Cmax, clinical drug concentration ([3]; 120 μg/kg/day cohort study, ref FDA (URL EMA Bylvay product information))
1 | still inactive | still inactive | CCCCC1(CCCC)CS(=O)(=O)c2ccc(N(C)C)cc2[C@@H](c2ccc(OCCCC[N+]34CCN(CC3)CC4)cc2)[C@H]1O [SC-435] |  |  |  | 
2 | did not significantly change | did not significantly change | CCCCC1(CCCC)CN(c2ccccc2)c2cc(SC)c(OCC(=O)N[C@@H](C(=O)NCC(=O)O)c3ccccc3)cc2S(=O)(=O)C1 [elobixibat] | Elobixibat clinical drug concentration in the 15 mg cohort study: Cmax = 0.39 ng/ml. |  |  | 
3 | still inactive | still inactive | CCCC[C@]1(CC)CS(=O)(=O)c2cc(CNC(CC(=O)O)CC(=O)O)c(OC)cc2[C@@H](c2ccccc2)N1 [linerixibat] |  |  |  | 
4 | did not significantly change | did not significantly change | CCCCC1(CCCC)CS(=O)(=O)c2ccc(N(C)C)cc2[C@@H](c2ccc(OCc3ccc(C[N+]45CCN(CC4)CC5)cc3)cc2)[C@H]1O [maralixibat] |  | 1.62 | 0.57 | 
5 | did not significantly change | did not significantly change | CCCCC1(CCCC)CN(c2ccccc2)c2cc(SC)c(OCC(=O)N[C@@H](C(=O)N[C@@H](CC)C(=O)O)c3ccc(O)cc3)cc2S(=O)(=O)N1 [odevixibat] |  |  |  | Odevixibat clinical drug concentration in the 120 μg/kg/day cohort study: Cmax = 0.62 ng/ml.
